Tests used:
C. difficile strain 4013 [1] = assay: Hamster CDAD induced by oral C. difficile challenge plus clindamycin; format: in vivo, Syrian hamsters; conditions: for animals surviving the study: all doses
Protocol: In a second study, animals were challenged orally with a bacterial suspension of C. difficile and then administered a single s.c. injection of 100 mg/kg clindamycin. Oral treatment with ramoplanin or vancomycin at 25-50-100 mg/kg or metronidazole at 100-200-400 mg/kg started 24 hours after clindamycin administration and lasted for five days. Hamsters were weighed and observed every 24 hours for evidence of diarrhea or moribund conditions, and the cecal contents were analyzed for C. difficile toxin A (ELISA).

C. difficile [2] = assay: Recovery of C. difficile spores or vegetative cells from clindamycin-treated animals; format: in vivo, hamster; conditions: after single dose of clindamycin and treatment
Protocol: In another study, animals were administered a single dose of clindamycin and then treated with either vancomycin or ramoplanin.

C. difficile [3] = assay: Hamster model of clindamycin-induced C. difficile-associated colitis; format: in vivo, Syrian hamsters; conditions: oral 50 mg/kg/day for 5 days; for survival rate: from 24 hours after clindamycin 100 mg/kg s.c., monitored 20 days
Protocol: To evaluate the in vivo efficacy of ramoplanin in the treatment of C. difficile-associated colitis, ramoplanin was tested in a hamster model of clindamycin (CL)-induced colitis in comparison with both vancomycin and metronidazole. Animals were treated with a single subcutaneous (s.c.) injection of 100 mg/kg clindamycin, and after 24 hours received oral ramoplanin or vancomycin at 50 mg/kg/day for 5 days. Animals were observed daily for the presence or absence of diarrhea. Necropsies were performed on some animals that died during the experiment, and cecal contents were assayed for C. difficile toxin A. Hamsters were monitored for 20 days, and the cumulative mortality during this period was recorded (FIG. 1). […] C. difficile toxin A was always detected in these animals. […] All hamsters that died had gross pathologic evidence of enterocolitis and cecal contents were positive for Toxin A.

VRE = assay: Multiple dose study in asymptomatic carriers of intestinal VRE; format: in vivo, human; conditions: for patients remaining VRE free: Day 14 (seven days after cessation)
Protocol: Patients identified as asymptomatic carriers of VRE were administered placebo or one of two dosages (100 mg, 400 mg) of ramoplanin BID (twice daily) for seven days. Patients were assessed by rectal swab on Days 7, 14, and 21 to determine the presence or absence of VRE. On Days 45 and 90, stool samples were analyzed for long-term effects of ramoplanin on the recurrence of, or reinfection with, VRE. All VRE isolates were tested for susceptibility to ramoplanin.

[4] = test system: Gram-positive bacteria (staphylococci, streptococci, enterococci); assay: Multiple dose study, antibacterial activity on stool microflora: Gram-positive bacteria; format: in vivo, human
Protocol: (§1) The antibacterial activity of ramoplanin on the stool microflora was assessed in a subset of the subjects. Microbial concentrations (i.e., the number of organisms per gram of fecal matter) were determined at the following time points: Day −4 (pre-treatment), Days 4 and 10 (treatment), and Days 7 and 24 (follow-up). Tolerability and absorption were also investigated.

[5] = Multiple oral dose study in healthy male volunteers: absorption and fecal concentrations; format: in vivo, human
Protocol: Healthy male volunteers were administered 200, 400, or 800 mg ramoplanin twice-a-day, for ten consecutive days. The predetermined dose was reconstituted in 5 mL water per vial, mixed with 50 mL of sweetened, aromatized solution, and immediately administered orally to the subjects.
No absorption from the human gastrointestinal tract was observed.

[6] = test system: Gram-negative bacteria (enteric bacteria and Bacteroides spp.) or yeast; assay: Multiple dose study, antibacterial activity on stool microflora: Gram-negative bacteria and yeast; format: in vivo, human
Protocol: as §1

Clostridium spp. = assay: Multiple dose study, antibacterial activity on stool microflora: Clostridium spp.; format: in vivo, human
Protocol: as §1

[7] = Single oral dose study in healthy male volunteers: absorption and fecal recovery; format: in vivo, human
Protocol: The absorption, tolerability, and recovery of ramoplanin following single dose oral administration were investigated in male volunteers. Ramoplanin was administered as an aqueous solution at a dose of 100, 200, 500, or 1000 mg to fasting subjects. Serum samples were obtained prior to drug administration of ramoplanin and 0.5, 1, 2, 3, 6, 9, 12, 24, 48, 72, and 96 hours after treatment. Urine samples were collected prior to administration of ramoplanin and over the periods 0-3,3-6, 6-12, 12-24, 24-48, 48-72, and 72-96 hours after dosing. Fecal samples were collected prior to dosing and over the periods 0-16 (Day 1), 16-40 (Day 2), 40-64 (Day 3), 64-88 (Day 4), and 88-96 (Day 5) hours after dosing. A microbiological assay employing Bacillis subtilis ATCC 6633 as the test organism was used to determine ramoplanin concentrations in serum, urine, and feces. The limits of quantitation for this assay were 0.02 μg/mL in serum, 0.012 μg/mL in urine, and 3 μg/g in feces. Tolerability was assessed on the basis of clinical signs and symptoms and the results of blood and urine laboratory tests.

[8] = In vitro interaction of ramoplanin with human intestinal contents
Text: The in vitro interaction of ramoplanin with human intestinal contents was studied. […] The binding and the subsequent release of ramoplanin from feces would likely result in long-lasting concentrations in the intestinal tract.

C. difficile strain 4013 [9] = assay: Hamster CDAD, different durations of treatment; format: in vivo, Syrian hamsters; conditions: ramoplanin 50 mg/kg oral daily for 3 days versus vancomycin 50 mg/kg for 5 days
Protocol: Hamsters were inoculated with C. difficile on day 0 and then administered 100 mg/kg clindamycin s.c. on day 1. Hamsters received daily oral doses of 50 mg/kg ramoplanin or vancomycin for 3 or 5 days starting on day 2.

## CN[C@H](CC(C)C)C(=O)N[C@H]1C(=O)N[C@@H](CC(N)=O)C(=O)N[C@H]2C(=O)N[C@H]3C(=O)N[C@H](C(=O)N[C@H](C(=O)O)c4cc(O)cc(O)c4-c4cc3ccc4O)[C@H](O)c3ccc(c(Cl)c3)Oc3cc2cc(c3O[C@@H]2O[C@H](CO)[C@@H](O)[C@H](O)[C@H]2O[C@H]2C[C@](C)(N)[C@H](O)[C@H](C)O2)Oc2ccc(cc2Cl)[C@H]1O [vancomycin, reference compound]
C. difficile strain 4013 [1]; oral for five days
  animals surviving the study: No animals treated with vancomycin or metronidazole survived the study
C. difficile [2]
  recovery of C. difficile spores or vegetative cells: C. difficile spores were recovered from some of the animals
C. difficile [3]
  prolonging survival and protecting animals from death: highly effective
  survival rate: 20%

## Cc1ncc([N+](=O)[O-])n1CCO [metronidazole]
C. difficile strain 4013 [1]; oral for five days
  animals surviving the study: No animals treated with vancomycin or metronidazole survived the study
C. difficile strain 4013 [1]; oral for five days, ramoplanin or vancomycin 25-50-100 mg/kg, metronidazole 100-200-400 mg/kg
  prolonged survival: 9 days

## ramoplanin
VRE; 100 mg or 400 mg BID for seven days
  suppression of intestinal VRE (primary efficacy variable): effectively suppressed intestinal VRE
VRE; Day 7, 100 mg BID for seven days, 17 of 21 patients
  patients with no detectable VRE: 81.0%
VRE; Day 7, 400 mg BID for seven days, 18 of 20 patients
  patients with no detectable VRE: 90.0%
VRE; 100 mg BID, 6 of 21 patients
  patients remaining VRE free: 28.6%
VRE; 400 mg BID, 7 of 17 patients
  patients remaining VRE free: 41.2%
VRE; Day 21
  number of VRE-free patients: comparable among all treatment groups
C. difficile strain 4013 [1]; 100 mg/kg oral for five days
  survival at the end of observation period: 20%
C. difficile strain 4013 [1]; oral for five days
  time of death compared to vancomycin-treated animals: delayed compared to that of vancomycin-treated animals
[4]; all doses (200, 400 or 800 mg BID), during the 10-day regimen
  Gram-positive colony counts in feces: undetectable levels
[4]; by Day 10, all subjects
  concentrations of staphylococci, streptococci and enterococci in stool: below the level of detection
[4]; first measurement on Day 4
  effect on Gram-positive bacteria of the stool: marked effect
[5]; 200, 400 or 800 mg twice-a-day for ten days
  absorption from the human gastrointestinal tract: No absorption
[5]; Day 1 and 5 and pooled urine up to 72-96 after the last dose
  urine levels: No levels were found in urine
[5]; Day 3, 200 mg twice-a-day
  average fecal concentration: 827 µg/g
[5]; Day 3, 400 mg twice-a-day
  average fecal concentration: 1742 µg/g
[5]; Day 3, 800 mg twice-a-day
  average fecal concentration: 1901 µg/g
[5]; Day 10, 200 mg twice-a-day
  average fecal concentration: 949 µg/g
[5]; Day 10, 400 mg twice-a-day
  average fecal concentration: 1417 µg/g
[5]; Day 10, 800 mg twice-a-day
  average fecal concentration: 2647 µg/g
[5]; Days 1, 5 and 10, hour 0.5, 1, 2, 3, 6, 9 and 12 after the morning dose
  serum levels: no serum levels of ramoplanin were detected
[5]; after ten days of twice-a-day dosing
  fecal concentrations post-treatment: remained detectable in some subjects four days post-treatment
[5]; up to Day 4 post-treatment
  cumulative recovery in feces, of the administered dose: 25%
[6]; 200, 400 or 800 mg BID for 10 days
  activity against Gram-negative flora in feces: not effective
[6]; multiple dose, ten days
  effect on Gram-negative bacteria (enteric bacteria and Bacteroides spp.) or yeast of the stool: no effect
Clostridium spp.; multiple dose, ten days
  clostridial load in the two subjects carrying ramoplanin- and vancomycin-resistant Clostridium spp. (C. rectum and C. bejerinckii): no variation in the clostridial load
  subjects with Clostridium spp. concentration reduced below detectable levels: 10 of 12
Clostridium spp.; pre- or post-treatment
  ramoplanin- or vancomycin-resistant C. difficile strains in stool: No ramoplanin- or vancomycin-resistant strain of C. difficile was detected
[7]; 100 mg single oral dose
  mean cumulative recovery in feces, of the administered dose: 67.7%
  mean maximum concentration in feces: 214 µg/g
  range of cumulative recovery in feces: 55.7-84%
  range of maximum concentrations in feces: 148 to 278 µg/g
[7]; 200 mg single oral dose
  mean cumulative recovery in feces, of the administered dose: 48.5%
  mean maximum concentration in feces: 287 µg/g
  range of cumulative recovery in feces: 39.3-56.5%
  range of maximum concentrations in feces: 164 to 454 µg/g
[7]; 500 mg single oral dose
  mean cumulative recovery in feces, of the administered dose: 52.8%
  mean maximum concentration in feces: 1655 µg/g
  range of cumulative recovery in feces: 41.3-79.6%
  range of maximum concentrations in feces: 737 to 3316 µg/g
[7]; 1000 mg single oral dose
  mean cumulative recovery in feces, of the administered dose: 46.4%
  mean maximum concentration in feces: 1835 µg/g
  range of cumulative recovery in feces: 39.9-58.4%
  range of maximum concentrations in feces: 1336 to 3154 µg/g
[7]; fourth day of study, single oral dose
  subjects with ramoplanin still detectable in feces: 17 of 24
[7]; single oral dose, not dose dependent
  time of maximum concentration and maximum percentage recovery in feces: Day 2
[7]; single oral doses up to 1000 mg and multiple oral doses 200, 400 or 800 mg BID for 10 days, bioassay and HPLC
  detection in serum/plasma or urine: not detected
C. difficile [2]
  recovery of C. difficile spores or vegetative cells: No C. difficile spores or vegetative cells were recovered
[8]
  binding to solid components of feces: bind reversibly to solid components of feces
  microbiological activity in feces: microbiologically active in feces
C. difficile strain 4013 [9]
  efficacy by duration of treatment: more effective than vancomycin administration for 5 days
C. difficile [3]
  prolonging survival and protecting animals from death: highly effective
  survival rate: 80%

From patent US7317001B2, “Use of ramoplanin to treat diseases associated with the use of antibiotics” (priority 2002, dated 2008)
